Reference: ChEMBL document CHEMBL1201862, “PubChem BioAssay data set” (2004)
pIC50: −log10 of the molar value. Each block holds one molecule with its values, some of them ahead of it. Activity calls are given as the source filed them.

Tests used:
Protein Rev = Protein Rev (Human immunodeficiency virus type 1 group M subtype B (isolate HXB2)(HIV-1), UniProt P04618); assay: inhibitors of Rev binding to RRE RNA, dose response, biochemical, fluorescence polarization, HIV-1 (AID 434976); design: species or system Human immunodeficiency virus 1
[1] = biological target: Female germline-specific tumor suppressor gld-1 (Caenorhabditis elegans, UniProt Q17339); assay: inhibitors of GLD-1 binding to TGE RNA, dose response, biochemical, fluorescence polarization, C. elegans (AID 2802);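 further: fluorescence polarization of labeled TGE RNA bound by purified gld-1 protein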
[2] = biological target: T1, RNA-binding protein pos-1 (Caenorhabditis elegans, UniProt G5EF15); assay: inhibitors of POS-1/mex-3 RNA binding, dose response, biochemical, fluorescence polarization (AID 1964);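 further: purified POS-1 fused to maltose binding protein made in E. coli; potency of compounds blocking POS-1 binding to fluorescent RNA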
T1 sequence (G5EF15 whole entry): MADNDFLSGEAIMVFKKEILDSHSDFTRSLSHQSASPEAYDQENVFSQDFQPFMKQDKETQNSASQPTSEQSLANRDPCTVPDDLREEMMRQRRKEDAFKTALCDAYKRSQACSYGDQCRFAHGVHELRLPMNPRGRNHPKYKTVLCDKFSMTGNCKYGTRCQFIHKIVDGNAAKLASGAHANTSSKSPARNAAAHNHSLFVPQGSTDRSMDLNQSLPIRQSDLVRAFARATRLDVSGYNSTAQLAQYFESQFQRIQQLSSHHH

[3] = biological target: T2, Zinc finger protein mex-5 (Caenorhabditis elegans, UniProt Q9XUB2); assay: MEX-5/TCR-2 RNA interaction inhibitors, dose response, biochemical, C. elegans, fluorescence polarization (AID 1960)
T2 sequence (Q9XUB2 whole entry): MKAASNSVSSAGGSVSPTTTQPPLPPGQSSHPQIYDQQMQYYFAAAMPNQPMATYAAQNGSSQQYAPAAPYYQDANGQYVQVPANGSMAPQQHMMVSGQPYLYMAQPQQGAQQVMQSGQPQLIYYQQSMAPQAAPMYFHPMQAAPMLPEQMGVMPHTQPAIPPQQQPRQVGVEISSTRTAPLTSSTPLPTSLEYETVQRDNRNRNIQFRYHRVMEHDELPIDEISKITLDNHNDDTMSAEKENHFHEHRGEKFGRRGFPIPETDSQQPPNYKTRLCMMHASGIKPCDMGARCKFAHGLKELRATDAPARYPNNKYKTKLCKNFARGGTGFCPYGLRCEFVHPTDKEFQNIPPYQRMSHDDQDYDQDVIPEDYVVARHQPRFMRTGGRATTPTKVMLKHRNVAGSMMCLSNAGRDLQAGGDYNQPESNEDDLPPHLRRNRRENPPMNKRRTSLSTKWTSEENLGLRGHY

[4] = Shn3 3'UTR reporter inhibitors, dose response, cell-based, Clone20 osteoblasts, firefly luciferase, cherry-picked (AID 624132); type: functional;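 further: firefly luciferase luminescence from reporter carrying the Shn3 3'UTR in osteoblasts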
[5] = control 3'UTR Renilla luciferase suppression, dose response, counter-screen for Shn3 inhibitor project, cell-based, Clone20-Shn3RL, cherry-picked (AID 624133); type: functional
Mu-type opioid receptor [6] = biological target: T3, Mu-type opioid receptor (Homo sapiens, UniProt P35372); assay: SAR Analysis of Antagonists of the MOR Receptor using an Image-Based Assay - Set 3. [Related pubchem assays (depositor defined):AID1777, AID1785, AID1786, AID1966, AID2133, AID2136, AID2284, AID2285, AID2420]; type: functional
[7] = biological target: T4, Delta-type opioid receptor (Homo sapiens, UniProt P41143); assay: SAR Analysis of Antagonists of the DOR Receptor using an Image-Based Assay - Set 3. [Related pubchem assays (depositor defined):AID1777, AID1785]; type: functional
[8] = biological target: T5, Kappa-type opioid receptor (Homo sapiens, UniProt P41145); assay: SAR analysis of small molecule antagonists of the kappa opioid receptor via a luminescent beta-arrestin assay - Set 3. [Related pubchem assays (depositor defined):AID1777, AID1778, AID1785, AID1786, AID1966, AID2133, AID2136, AID2285, AID2495]; type: functional
[9] = biological target: T5, Kappa-type opioid receptor; assay: SAR analysis of Antagonists of the Kappa Opioid Receptor (KOR) using an Image-Based Assay - Set 4. [Related pubchem assays (depositor defined):AID1777, AID1785]; type: functional
Mu-type opioid receptor [10] = biological target: T3, Mu-type opioid receptor; assay: MOR agonists by imaging, SAR follow-up, image-based (AID 2352); type: functional
[11] = biological target: T4, Delta-type opioid receptor; assay: DOR agonists, SAR follow-up, image-based (AID 2370); type: functional
[12] = biological target: T5, Kappa-type opioid receptor; assay: KOR antagonists by imaging, SAR follow-up, image-based (AID 2348); type: functional
Mu-type opioid receptor [13] = biological target: T3, Mu-type opioid receptor; assay: MOR antagonists, SAR follow-up, image-based (AID 2420); type: functional;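 further: compounds added before stimulation of receptor with agonist DAMGO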
[14] = biological target: T5, Kappa-type opioid receptor; assay: KOR agonist analogs, imaging readout, SAR follow-up, image-based (AID 2359); type: functional
[15] = biological target: T4, Delta-type opioid receptor; assay: DOR antagonists, SAR follow-up, image-based (AID 2357); type: functional
[16] = biological target: T5, Kappa-type opioid receptor; assay: kappa opioid receptor blockers, cell-based, luminescence, beta-arrestin, SAR follow-up (AID 2285); type: functional
[17] = biological target: Eukaryotic translation initiation factor 4H (Homo sapiens, UniProt Q15056); assay: eIF4H inhibition in translation initiation, SAR follow-up (AID 435011); type: functional
[18] = biological target: Polyadenylate-binding protein 1 (Homo sapiens, UniProt P11940); assay: PABP inhibition in translation initiation, SAR follow-up (AID 435018); type: functional
J774.A1 = assay: Confirmation of image-based Screening Assay for Inhibitors of Phagocytosis. [Related pubchem assays (depositor defined):AID1029, AID1643]; type: functional, cell-based; conditions: Mus musculus
[19] = biological target: T5, Kappa-type opioid receptor; type: functional
Beta-galactosidase = Beta-galactosidase (Escherichia coli, UniProt Q8VNN2); type: functional
[20] = biological target: T5, Kappa-type opioid receptor; type: functional; remark: listed apart in the source
HeLa = assay: HeLa cell cytotoxicity, dose response, cytotoxicity control, 24 h, cherry-picked samples (AID 504726); type: functional, cell-based; conditions: Homo sapiens;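 further: potency for cytotoxicity as loss of luminescence signal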
ORF 73 = ORF 73 (Human herpesvirus 8, UniProt O40947); assay: inhibitors of C-LANA binding to LBS DNA, dose response, biochemical, fluorescence polarization, cherry-picked samples (AID 504725); design: species or system Human gammaherpesvirus 8;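 further: fluorescence polarization of a labeled DNA duplex reporting LANA DNA binding; potency is for inhibitors that block LANA binding to the DNA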
[21] = biological target: T6, Small ubiquitin-related modifier 1 (Homo sapiens, UniProt P63165); assay: inhibitors of SUMO1 peptide binding, dose response, biochemical, fluorescence polarization, uHTS hits (AID 624382); type: functional; conditions: read-out: IC50_Mean
[22] = biological target: T7, Probable nicotinate-nucleotide adenylyltransferase (Staphylococcus aureus (strain N315), UniProt P65502); type: functional, Staphylococcus aureus subsp. aureus N315;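 on IC50 Mean: confirmatory dose-response retesting of NadD inhibitor hits first found in an ultra-high-throughput screen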
[23] = biological target: T7, Probable nicotinate-nucleotide adenylyltransferase; type: functional, Staphylococcus aureus subsp. aureus N315; conditions: read-out: IC50_Mean
[24] = biological target: T6, Small ubiquitin-related modifier 1; assay: inhibitors of SUMO1 partner interactions, dose response, biochemical, FRET (AID 624383); type: functional; conditions: read-out: IC50_Mean
[25] = biological target: T8, Rac GTPase-activating protein 1 (Homo sapiens, UniProt Q9H0H5); assay: MgcRacGAP GTPase-activating activity inhibitors, confirmation, biochemical, ADP Hunter fluorescence, primary and confirmatory (AID 624330); type: functional
T8 sequence (Q9H0H5 whole entry): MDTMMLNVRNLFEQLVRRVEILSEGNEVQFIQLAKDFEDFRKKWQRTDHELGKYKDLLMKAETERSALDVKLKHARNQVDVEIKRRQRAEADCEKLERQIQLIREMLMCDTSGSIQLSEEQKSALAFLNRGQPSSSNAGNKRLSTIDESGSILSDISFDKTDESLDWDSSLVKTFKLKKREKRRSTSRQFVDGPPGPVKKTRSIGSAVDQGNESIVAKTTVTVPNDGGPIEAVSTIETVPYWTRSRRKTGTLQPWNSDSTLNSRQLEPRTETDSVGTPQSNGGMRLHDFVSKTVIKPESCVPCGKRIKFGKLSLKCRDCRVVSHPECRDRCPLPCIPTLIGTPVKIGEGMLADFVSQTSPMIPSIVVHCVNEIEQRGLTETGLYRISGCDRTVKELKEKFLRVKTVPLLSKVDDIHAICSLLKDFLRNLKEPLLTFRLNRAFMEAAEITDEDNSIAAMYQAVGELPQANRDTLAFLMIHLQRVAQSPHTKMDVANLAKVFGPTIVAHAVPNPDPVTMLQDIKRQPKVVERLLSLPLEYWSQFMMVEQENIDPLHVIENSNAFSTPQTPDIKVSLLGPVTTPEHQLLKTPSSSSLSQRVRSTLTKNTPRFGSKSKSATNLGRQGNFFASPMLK

[26] = biological target: T9, Tyrosine-protein phosphatase non-receptor type 7 (Homo sapiens, UniProt P35236); assay: redox-dependent HePTP inhibition, mechanism study, biochemical, fluorescence (AID 2068); type: functional
T9 sequence (P35236 whole entry): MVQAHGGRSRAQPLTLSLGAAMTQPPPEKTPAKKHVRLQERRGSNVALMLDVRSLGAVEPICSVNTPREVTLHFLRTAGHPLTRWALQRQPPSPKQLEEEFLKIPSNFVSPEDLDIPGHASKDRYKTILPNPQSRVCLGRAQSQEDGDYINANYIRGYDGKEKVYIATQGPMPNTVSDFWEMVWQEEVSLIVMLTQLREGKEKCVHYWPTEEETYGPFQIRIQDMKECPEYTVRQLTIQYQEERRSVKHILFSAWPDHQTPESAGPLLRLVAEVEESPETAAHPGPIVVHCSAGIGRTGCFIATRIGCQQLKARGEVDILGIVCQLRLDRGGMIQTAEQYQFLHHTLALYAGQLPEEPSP

[27] = biological target: Melanin-concentrating hormone receptor 1 (Homo sapiens, UniProt Q99705); assay: Late-stage fluorescence-based counterscreen for antagonists of the G-protein coupled receptor 7 (GPR7): cell-based dose response assay to identify antagonists of the melanin-concentrating hormone receptor 1 (MCHR1). [Related pubchem assays (depositor defined):AID1861, AID1880, AID1952, AID2148, AID2251, AID2257, AID485339]; type: functional;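 further: stimulated with 30 nM MCH peptide agonist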
[28] = biological target: T10, Neuropeptides B/W receptor type 1 (Homo sapiens, UniProt P48145); assay: GPR7 antagonist potency, late-stage follow-up, cell-based, fluorescence, dose response (AID 463251); type: functional
T10 sequence (P48145 whole entry): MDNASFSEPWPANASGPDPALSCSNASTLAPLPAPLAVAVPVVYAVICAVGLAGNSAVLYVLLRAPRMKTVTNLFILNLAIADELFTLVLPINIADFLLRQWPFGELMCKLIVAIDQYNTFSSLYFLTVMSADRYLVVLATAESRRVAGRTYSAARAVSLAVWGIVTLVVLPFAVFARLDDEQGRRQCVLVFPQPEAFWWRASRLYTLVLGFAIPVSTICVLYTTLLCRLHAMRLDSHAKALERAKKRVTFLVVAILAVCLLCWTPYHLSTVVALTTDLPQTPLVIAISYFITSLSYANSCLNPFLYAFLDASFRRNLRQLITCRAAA

T3 sequence (P35372 whole entry): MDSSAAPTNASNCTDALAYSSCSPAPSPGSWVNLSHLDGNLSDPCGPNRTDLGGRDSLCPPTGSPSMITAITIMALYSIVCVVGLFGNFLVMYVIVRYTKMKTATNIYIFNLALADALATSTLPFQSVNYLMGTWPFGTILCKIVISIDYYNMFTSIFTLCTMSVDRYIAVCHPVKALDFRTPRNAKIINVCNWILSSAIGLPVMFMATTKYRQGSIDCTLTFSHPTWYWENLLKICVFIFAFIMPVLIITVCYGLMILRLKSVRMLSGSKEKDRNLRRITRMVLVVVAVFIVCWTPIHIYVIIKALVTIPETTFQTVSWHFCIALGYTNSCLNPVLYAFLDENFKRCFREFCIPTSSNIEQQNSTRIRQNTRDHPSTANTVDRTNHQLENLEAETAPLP
T5 sequence (P41145 whole entry): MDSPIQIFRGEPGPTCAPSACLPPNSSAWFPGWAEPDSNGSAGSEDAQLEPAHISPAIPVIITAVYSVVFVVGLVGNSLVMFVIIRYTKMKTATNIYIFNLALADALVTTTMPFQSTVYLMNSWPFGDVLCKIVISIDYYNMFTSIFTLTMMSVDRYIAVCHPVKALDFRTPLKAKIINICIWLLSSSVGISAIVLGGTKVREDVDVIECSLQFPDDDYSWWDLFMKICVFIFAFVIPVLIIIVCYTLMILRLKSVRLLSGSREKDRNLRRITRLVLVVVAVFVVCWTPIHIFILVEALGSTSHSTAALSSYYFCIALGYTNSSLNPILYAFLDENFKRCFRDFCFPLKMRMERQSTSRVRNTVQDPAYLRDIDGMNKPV
T4 sequence (P41143 whole entry): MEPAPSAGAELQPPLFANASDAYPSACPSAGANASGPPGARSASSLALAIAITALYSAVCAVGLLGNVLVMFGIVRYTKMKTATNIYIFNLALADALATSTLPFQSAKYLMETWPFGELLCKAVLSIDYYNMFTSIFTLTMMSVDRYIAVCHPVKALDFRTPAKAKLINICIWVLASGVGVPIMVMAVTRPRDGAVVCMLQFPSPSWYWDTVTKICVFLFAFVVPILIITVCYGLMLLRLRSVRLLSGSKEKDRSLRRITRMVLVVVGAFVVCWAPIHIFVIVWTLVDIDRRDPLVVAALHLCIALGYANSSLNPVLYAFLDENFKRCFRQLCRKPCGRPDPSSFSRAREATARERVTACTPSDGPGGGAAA
T6 sequence (P63165 whole entry): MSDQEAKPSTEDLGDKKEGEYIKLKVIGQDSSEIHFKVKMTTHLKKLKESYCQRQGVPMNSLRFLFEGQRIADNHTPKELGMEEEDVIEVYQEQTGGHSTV
Sequence of ORF 73 (O40947 whole entry): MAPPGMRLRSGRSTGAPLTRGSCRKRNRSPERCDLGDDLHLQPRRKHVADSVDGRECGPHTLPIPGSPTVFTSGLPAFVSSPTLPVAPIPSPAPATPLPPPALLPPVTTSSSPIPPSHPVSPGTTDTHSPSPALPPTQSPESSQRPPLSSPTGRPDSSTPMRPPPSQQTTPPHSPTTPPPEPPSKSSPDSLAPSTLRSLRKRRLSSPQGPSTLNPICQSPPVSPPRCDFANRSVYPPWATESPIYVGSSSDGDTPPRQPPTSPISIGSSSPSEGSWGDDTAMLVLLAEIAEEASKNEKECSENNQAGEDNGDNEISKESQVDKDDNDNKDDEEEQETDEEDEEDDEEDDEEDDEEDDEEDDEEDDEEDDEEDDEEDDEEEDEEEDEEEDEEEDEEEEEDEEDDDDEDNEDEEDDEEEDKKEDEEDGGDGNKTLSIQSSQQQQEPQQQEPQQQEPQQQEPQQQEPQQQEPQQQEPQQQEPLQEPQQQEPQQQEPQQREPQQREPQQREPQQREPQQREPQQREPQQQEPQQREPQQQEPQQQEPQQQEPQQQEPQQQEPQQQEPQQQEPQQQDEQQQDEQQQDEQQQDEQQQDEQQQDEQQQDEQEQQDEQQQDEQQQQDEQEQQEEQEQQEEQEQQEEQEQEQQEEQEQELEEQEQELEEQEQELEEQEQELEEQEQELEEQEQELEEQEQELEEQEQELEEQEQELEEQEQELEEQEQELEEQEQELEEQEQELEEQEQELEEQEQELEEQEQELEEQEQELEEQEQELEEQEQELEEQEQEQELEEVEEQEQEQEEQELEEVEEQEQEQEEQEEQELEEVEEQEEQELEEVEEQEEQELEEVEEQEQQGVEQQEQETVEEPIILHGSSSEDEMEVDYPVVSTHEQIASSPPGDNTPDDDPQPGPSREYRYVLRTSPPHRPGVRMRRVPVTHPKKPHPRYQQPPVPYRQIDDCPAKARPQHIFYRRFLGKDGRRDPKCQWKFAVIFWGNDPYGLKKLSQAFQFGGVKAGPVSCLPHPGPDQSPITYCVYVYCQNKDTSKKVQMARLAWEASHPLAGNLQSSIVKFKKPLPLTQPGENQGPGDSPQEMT
Sequence of Beta-galactosidase (Q8VNN2 whole entry): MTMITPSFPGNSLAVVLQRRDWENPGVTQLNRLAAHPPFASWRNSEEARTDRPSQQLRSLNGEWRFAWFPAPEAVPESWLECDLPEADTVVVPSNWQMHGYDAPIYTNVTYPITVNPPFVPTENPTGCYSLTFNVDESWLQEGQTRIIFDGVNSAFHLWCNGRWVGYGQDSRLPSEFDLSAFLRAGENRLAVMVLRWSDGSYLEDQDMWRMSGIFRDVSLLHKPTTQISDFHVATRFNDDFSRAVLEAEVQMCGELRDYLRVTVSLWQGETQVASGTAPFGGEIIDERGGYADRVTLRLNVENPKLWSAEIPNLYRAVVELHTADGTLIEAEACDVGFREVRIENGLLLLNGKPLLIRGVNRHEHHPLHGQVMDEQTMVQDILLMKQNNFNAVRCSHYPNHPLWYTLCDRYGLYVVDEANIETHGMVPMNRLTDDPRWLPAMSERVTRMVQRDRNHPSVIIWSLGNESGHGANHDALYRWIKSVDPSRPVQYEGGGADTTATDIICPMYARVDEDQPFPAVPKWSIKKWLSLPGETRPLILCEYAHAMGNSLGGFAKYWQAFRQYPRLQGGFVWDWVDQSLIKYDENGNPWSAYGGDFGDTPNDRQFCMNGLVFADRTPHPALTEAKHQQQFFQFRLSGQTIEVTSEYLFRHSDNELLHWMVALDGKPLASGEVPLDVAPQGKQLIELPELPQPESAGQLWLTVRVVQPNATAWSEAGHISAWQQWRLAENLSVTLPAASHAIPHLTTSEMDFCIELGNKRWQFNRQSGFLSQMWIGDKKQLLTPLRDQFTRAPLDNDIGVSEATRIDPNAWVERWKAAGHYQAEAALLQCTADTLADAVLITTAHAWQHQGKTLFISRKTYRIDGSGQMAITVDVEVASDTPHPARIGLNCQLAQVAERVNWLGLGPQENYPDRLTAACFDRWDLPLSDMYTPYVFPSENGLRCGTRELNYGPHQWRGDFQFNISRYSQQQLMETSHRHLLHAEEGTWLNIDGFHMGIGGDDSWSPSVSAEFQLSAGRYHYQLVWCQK
Sequence of Polyadenylate-binding protein 1 (P11940 whole entry): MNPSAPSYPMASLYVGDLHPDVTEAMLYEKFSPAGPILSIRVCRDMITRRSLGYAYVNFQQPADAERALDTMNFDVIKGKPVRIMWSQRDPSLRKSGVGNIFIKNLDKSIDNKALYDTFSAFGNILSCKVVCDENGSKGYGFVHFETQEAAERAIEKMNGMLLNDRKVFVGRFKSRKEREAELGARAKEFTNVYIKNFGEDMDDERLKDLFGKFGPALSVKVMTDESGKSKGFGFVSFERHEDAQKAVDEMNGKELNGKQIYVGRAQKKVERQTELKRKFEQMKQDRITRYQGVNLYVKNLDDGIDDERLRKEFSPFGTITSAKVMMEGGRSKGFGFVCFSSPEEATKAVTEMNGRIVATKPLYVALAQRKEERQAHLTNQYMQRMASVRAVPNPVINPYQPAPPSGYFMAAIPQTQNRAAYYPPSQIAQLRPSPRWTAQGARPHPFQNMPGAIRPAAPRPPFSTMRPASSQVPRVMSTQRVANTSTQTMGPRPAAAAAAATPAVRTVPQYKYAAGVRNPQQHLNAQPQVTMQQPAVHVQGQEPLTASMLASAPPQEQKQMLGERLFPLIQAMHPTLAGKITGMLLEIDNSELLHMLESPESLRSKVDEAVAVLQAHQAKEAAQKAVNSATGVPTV
Sequence of Melanin-concentrating hormone receptor 1 (Q99705 whole entry): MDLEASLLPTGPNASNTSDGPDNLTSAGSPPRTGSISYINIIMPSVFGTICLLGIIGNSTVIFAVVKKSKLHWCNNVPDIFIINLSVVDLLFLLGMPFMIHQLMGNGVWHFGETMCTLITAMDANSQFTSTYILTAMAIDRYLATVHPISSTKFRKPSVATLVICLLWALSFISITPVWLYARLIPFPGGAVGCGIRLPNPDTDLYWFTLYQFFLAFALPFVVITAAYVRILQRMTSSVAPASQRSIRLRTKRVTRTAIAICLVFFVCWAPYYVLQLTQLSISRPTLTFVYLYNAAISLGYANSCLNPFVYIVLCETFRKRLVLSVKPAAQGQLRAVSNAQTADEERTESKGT
Sequence of Protein Rev (P04618 whole entry): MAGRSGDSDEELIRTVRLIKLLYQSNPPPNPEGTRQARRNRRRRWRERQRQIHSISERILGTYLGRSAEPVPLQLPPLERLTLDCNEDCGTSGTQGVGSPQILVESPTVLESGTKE

Compound: CCOC(=O)Cn1c(=O)c(-c2cc(Br)ccc2N)nc2ccccc21
IC50 (Protein Rev): 4.53 µM (active) | IC50 [1]: 25.4 µM (inactive) | EC50 [2]: > 300 µM (inconclusive) | EC50 [3]: 26.1 µM (inconclusive) | AC50 [4]: 0.758 µM (active) | AC50 [5]: 0.833 µM (active)

Compound: Cc1ccccc1NC(=O)CSc1ccc(-c2ccco2)nn1
IC50 [17]: > 100 µM (inactive) | IC50 [18]: > 100 µM (inactive)

Compound: Cc1c(C=NNC(=O)C2COc3ccccc3O2)c2ccccc2n1C (stereo not drawn)
IC50 (J774.A1): > 25 µM (inactive)

Compound: O=S(=O)(O)c1cc(O)c2ccc(Nc3ccccc3)cc2c1
AC50 (HeLa): 241 µM (active) | AC50 (ORF 73): 95.9 µM (active) | IC50 [21]: > 66.6 µM (inactive) | IC50 [22]: 15.9 µM (active) | IC50 [23]: 40.3 µM (active) | IC50 [24]: 2.16 µM (active) | IC50 [25]: 40.9 µM (active)

The next lines start with the values.

IC50 (Mu-type opioid receptor [6]): 14.3 µM (inactive) | IC50 [7]: > 32 µM (inactive) | IC50 [8]: 5.58 µM (active) | IC50 [9]: 1.79 µM (active)
Compound: COc1ccc(CN(CCNC(=O)c2ccc(CNS(=O)(=O)c3ccccc3)cc2)C(C)C)cc1

EC50 (Mu-type opioid receptor [10]): > 32 µM (inactive) | EC50 [11]: > 32 µM (inactive) | IC50 [12]: 20.5 µM (inactive) | IC50 (Mu-type opioid receptor [13]): > 32 µM (inactive) | EC50 [14]: > 32 µM (inactive) | IC50 [15]: > 32 µM (inactive) | IC50 [16]: > 10 µM (inactive)
Compound: Cc1ccc(C)c(N2CCN(CCCNC(=O)Cn3c(=O)c4cccn4c4cccnc43)CC2)c1

IC50 [19]: 4.88 µM (active) | EC50 (Beta-galactosidase): > 31.5 µM (inactive) | pIC50 [20]: 5.61
Compound: CC/C(=N\Nc1ccnc2cc(Cl)ccc12)c1ccc(O)cc1

IC50 [26]: 0.683 µM (active)
Compound: CCOC(=O)CCNC(=O)Nc1ccc2nc(-c3ccco3)c(-c3ccco3)nc2c1

IC50 [27]: 6.3 µM (active) | IC50 [28]: 2.1 µM (active)
Compound: CC(=O)Nc1ccc(Oc2c(Cl)cnn(-c3ccc(C(C)C)cc3)c2=O)cc1
